Source: patent publication EP0140492B1 (WARNER-LAMBERT COMPANY, priority 1983, dated 1985)
Where two headings read alike, the source gives them in different places. Marks after values point to notes of the source that are not given here.

Assay: Plasma levels of isoxicam and bioavailability parameters after a single oral dose to beagle dogs
Type: in vivo
Details: for Plasma levels of isoxicam / Plasma levels of isoxicam, Mean: 100 mg/dog oral (isoxicam equivalents); for AUC(0-inf) / half-life / Cmax / Tmax: dog, in vivo, po, 100 mg; for Tmax: read-out: Tmax; for Plasma levels of isoxicam, Mean: mean of dogs
Procedure: The range for the individual animals was 51.4 to 63.0 µg/ml with three animals having a peak time of two hours and the final animal at eight hours. These plasma levels were considerably higher when compared to micronized isoxicam. […] Peak plasma concentrations for individual animals ranged from […] between three and six hours postdose.
Areas under the plasma concentrations versus time curve (AUC^0-∞) were calculated using the trapezoidal rule and extrapolated to infinity with the appropriate elimination rate constants.

[1] = Mean of four dogs, oral 100 mg (free acid equivalents)
[2] = dog 1930, oral 100 mg (free acid equivalents)
[3] = dog 1942, oral 100 mg (free acid equivalents)
[4] = dog 117668, oral 100 mg (free acid equivalents)
[5] = dog 120064, oral 100 mg (free acid equivalents)

In the case of Cc1cc(NC(=O)C2=C(O)c3ccccc3S(=O)(=O)N2C)no1 [arginine isoxicamate, L-arginine isoxicamate], the “Plasma levels of isoxicam” value (dog 1930, time 0.5 h postdose) is reported as 29.6 µg/mL, the “Plasma levels of isoxicam” value (dog 1930, time 1.0 h postdose) is reported as 43.4 µg/mL and the “Plasma levels of isoxicam” value (dog 1930, time 2.0 h postdose) is reported as 51.4 µg/mL. For the same compound, the “Plasma levels of isoxicam” value (dog 1930, time 3.0 h postdose) was 47.5 µg/mL, the “Plasma levels of isoxicam” value (dog 1930, time 4.0 h postdose) was 48.9 µg/mL and the “Plasma levels of isoxicam” value (dog 1930, time 6.0 h postdose) was 48.3 µg/mL. For the same compound, the “Plasma levels of isoxicam” value (dog 1930, time 8.0 h postdose) was 42.6 µg/mL, the “Plasma levels of isoxicam” value (dog 1930, time 12.0 h postdose) was 37.8 µg/mL and the “Plasma levels of isoxicam” value (dog 1930, time 24.0 h postdose) was 32.8 µg/mL. The “Plasma levels of isoxicam” value (dog 1930, time 32.0 h postdose) was 25.2 µg/mL, the “Plasma levels of isoxicam” value (dog 1930, time 48.0 h postdose) was 25.0 µg/mL and the “Plasma levels of isoxicam” value (dog 1930, time 72.0 h postdose) was 14.6 µg/mL. For the same compound, the “Plasma levels of isoxicam” value (dog 1930, time 96.0 h postdose) was 10.2 µg/mL, the “Plasma levels of isoxicam” value (dog 1930, time 192.0 h postdose) was 1.56 µg/mL and the “Plasma levels of isoxicam” value (dog 1930, time 240.0 h postdose) was 0.89 µg/mL. The “Plasma levels of isoxicam” value (dog 1942, time 0.5 h postdose) was 7.99 µg/mL, the “Plasma levels of isoxicam” value (dog 1942, time 1.0 h postdose) was 28.1 µg/mL and the “Plasma levels of isoxicam” value (dog 1942, time 2.0 h postdose) was 58.6 µg/mL. The “Plasma levels of isoxicam” value (dog 1942, time 3.0 h postdose) was 51.7 µg/mL, the “Plasma levels of isoxicam” value (dog 1942, time 4.0 h postdose) was 53.9 µg/mL and the “Plasma levels of isoxicam” value (dog 1942, time 6.0 h postdose) was 50.5 µg/mL. For the same compound, the “Plasma levels of isoxicam” value (dog 1942, time 8.0 h postdose) was 42.2 µg/mL, the “Plasma levels of isoxicam” value (dog 1942, time 12.0 h postdose) was 39.4 µg/mL and the “Plasma levels of isoxicam” value (dog 1942, time 24.0 h postdose) was 35.6 µg/mL. The “Plasma levels of isoxicam” value (dog 1942, time 32.0 h postdose) was 25.7 µg/mL, the “Plasma levels of isoxicam” value (dog 1942, time 48.0 h postdose) was 25.5 µg/mL and the “Plasma levels of isoxicam” value (dog 1942, time 72.0 h postdose) was 17.1 µg/mL. The “Plasma levels of isoxicam” value (dog 1942, time 96.0 h postdose) was 8.96 µg/mL, the “Plasma levels of isoxicam” value (dog 1942, time 153.5 h postdose) was 2.34 µg/mL and the “Plasma levels of isoxicam” value (dog 1942, time 192.0 h postdose) was 1.28 µg/mL. For the same compound, the “Plasma levels of isoxicam” value (dog 1942, time 240.0 h postdose) was 0.60 µg/mL, the “Plasma levels of isoxicam” value (dog 117668, row 192.0, actual time=193 hours) was 0.85* µg/ml and the “Plasma levels of isoxicam” value (dog 117668, time 0.5 h postdose) was 22.8 µg/mL. For the same compound, the “Plasma levels of isoxicam” value (dog 117668, time 1.0 h postdose) was 42.6 µg/mL, the “Plasma levels of isoxicam” value (dog 117668, time 3.0 h postdose) was 55.1 µg/mL and the “Plasma levels of isoxicam” value (dog 117668, time 4.0 h postdose) was 59.3 µg/mL. For the same compound, the “Plasma levels of isoxicam” value (dog 117668, time 6.0 h postdose) was 50.2 µg/mL, the “Plasma levels of isoxicam” value (dog 117668, time 8.0 h postdose) was 63.0 µg/mL and the “Plasma levels of isoxicam” value (dog 117668, time 24.0 h postdose) was 30.5 µg/mL. The “Plasma levels of isoxicam” value (dog 117668, time 32.0 h postdose) was 29.6 µg/mL, the “Plasma levels of isoxicam” value (dog 117668, time 48.0 h postdose) was 18.6 µg/mL and the “Plasma levels of isoxicam” value (dog 117668, time 72.0 h postdose) was 10.7 µg/mL. For the same compound, the “Plasma levels of isoxicam” value (dog 117668, time 96.0 h postdose) was 5.10 µg/mL, the “Plasma levels of isoxicam” value (dog 117668, time 153.5 h postdose) was 1.27 µg/mL and the “Plasma levels of isoxicam” value (dog 117668, time 240.0 h postdose) was 0.51 µg/mL. The “Plasma levels of isoxicam” value (dog 120064, row 192.0, actual time=193 hours) was 2.17* µg/ml, the “Plasma levels of isoxicam” value (dog 120064, time 0.5 h postdose) was 1.11 µg/mL and the “Plasma levels of isoxicam” value (dog 120064, time 1.0 h postdose) was 15.5 µg/mL. For the same compound, the “Plasma levels of isoxicam” value (dog 120064, time 2.0 h postdose) was 51.8 µg/mL, the “Plasma levels of isoxicam” value (dog 120064, time 3.0 h postdose) was 46.3 µg/mL and the “Plasma levels of isoxicam” value (dog 120064, time 4.0 h postdose) was 50.5 µg/mL. The “Plasma levels of isoxicam” value (dog 120064, time 6.0 h postdose) was 49.6 µg/mL, the “Plasma levels of isoxicam” value (dog 120064, time 8.0 h postdose) was 42.0 µg/mL and the “Plasma levels of isoxicam” value (dog 120064, time 24.0 h postdose) was 31.3 µg/mL. For the same compound, the “Plasma levels of isoxicam” value (dog 120064, time 32.0 h postdose) was 34.8 µg/mL, the “Plasma levels of isoxicam” value (dog 120064, time 48.0 h postdose) was 21.5 µg/mL and the “Plasma levels of isoxicam” value (dog 120064, time 72.0 h postdose) was 17.6 µg/mL. For the same compound, the “Plasma levels of isoxicam” value (dog 120064, time 96.0 h postdose) was 9.39 µg/mL, the “Plasma levels of isoxicam” value (dog 120064, time 153.5 h postdose) was 3.52 µg/mL and the “Plasma levels of isoxicam” value (dog 120064, time 240.0 h postdose) was 1.26 µg/mL. For the same compound, the AUC(0-inf) [1] was 2840 µg·h/mL, the half-life (Mean of four dogs, oral 100 mg (free acid equivalents), elimination half-life, read-out: Half-life (converted)) was 36.2 h and the Cmax (Mean of four dogs, oral 100 mg (free acid equivalents), read-out: Cmax) was 55300 ng/mL. It also gave a Tmax [1] of 3 h, an AUC(0-inf) [2] of 2910 µg·h/mL and a half-life (dog 1930, oral 100 mg (free acid equivalents), elimination half-life, read-out: Half-life (converted)) of 38.8 h. For the same compound, the Cmax (dog 1930, oral 100 mg (free acid equivalents), read-out: Cmax) was 51400 ng/mL, the Tmax [2] was 2 h and the AUC(0-inf) [3] was 2920 µg·h/mL. The half-life (dog 1942, oral 100 mg (free acid equivalents), elimination half-life, read-out: Half-life (converted)) was 34.4 h, the Cmax (dog 1942, oral 100 mg (free acid equivalents), read-out: Cmax) was 58600 ng/mL and the Tmax [3] was 2 h. The AUC(0-inf) [4] was 2590 µg·h/mL, the half-life (dog 117668, oral 100 mg (free acid equivalents), elimination half-life, read-out: Half-life (converted)) was 27 h and the Cmax (dog 117668, oral 100 mg (free acid equivalents), read-out: Cmax) was 59300 ng/mL. It also gave a Tmax [4] of 6 h, an AUC(0-inf) [5] of 2950 µg·h/mL and a half-life (dog 120064, oral 100 mg (free acid equivalents), elimination half-life, read-out: Half-life (converted)) of 44.8 h. For the same compound, the Cmax (dog 120064, oral 100 mg (free acid equivalents), read-out: Cmax) was 51800 ng/mL, the Tmax [5] was 2 h and the Cmax (four dogs, 100 mg oral, read-out: Mean Cmax) was 56200 ± 5600 ng/mL. The half-life (four dogs, 100 mg oral, read-out: Mean half-lives (elimination, linear regression of semilogarithmic data) (converted)) was 36.2 ± 7.5 h, the “mean AUC^0-∞” value (four dogs, 100 mg oral, trapezoidal rule extrapolated to infinity) was 2840 ± 170 µg·h/mL and the “Plasma levels of isoxicam, Mean” value (time 0.5 h postdose) was 15400 ng/mL. The “Plasma levels of isoxicam, Mean” value (time 1.0 h postdose) was 32400 ng/mL, the “Plasma levels of isoxicam, Mean” value (time 2.0 h postdose) was 53900 ng/mL and the “Plasma levels of isoxicam, Mean” value (time 3.0 h postdose) was 50200 ng/mL. The “Plasma levels of isoxicam, Mean” value (time 4.0 h postdose) was 53200 ng/mL, the “Plasma levels of isoxicam, Mean” value (time 6.0 h postdose) was 49600 ng/mL and the “Plasma levels of isoxicam, Mean” value (time 8.0 h postdose) was 47400 ng/mL. The “Plasma levels of isoxicam, Mean” value (time 12.0 h postdose) was 38600 ng/mL, the “Plasma levels of isoxicam, Mean” value (time 24.0 h postdose) was 32600 ng/mL and the “Plasma levels of isoxicam, Mean” value (time 32.0 h postdose) was 28800 ng/mL. For the same compound, the “Plasma levels of isoxicam, Mean” value (time 48.0 h postdose) was 22600 ng/mL, the “Plasma levels of isoxicam, Mean” value (time 72.0 h postdose) was 15000 ng/mL and the “Plasma levels of isoxicam, Mean” value (time 96.0 h postdose) was 8410 ng/mL. For the same compound, the “Plasma levels of isoxicam, Mean” value (time 153.5 h postdose) was 2460 ng/mL, the “Plasma levels of isoxicam, Mean” value (time 192.0 h postdose (two dogs actually 193 hours)) was 1460 ng/mL and the “Plasma levels of isoxicam, Mean” value (time 240.0 h postdose) was 820 ng/mL. For the same compound, the “mean peak plasma concentration” value (reached at two hours postdose, 100 mg (free acid equivalents) per oral dose, dogs) was 53.9±4.0 Ilg/ml, the peak time (the final (fourth) animal, 100 mg oral) was “eight” and the peak time (three animals of four, 100 mg oral) was “two”.
